Drawing on PubChem BioAssay (NCI), this text covers TGI for eight molecules.

What all share (assay): NCI anticancer screen, dose series, 48 h
The subject of test [1] is COLO 205 colon.
Test [2] deals with HOP-62 NSCLC.
Test [3] deals with HS 578T breast.
Test [4] deals with MALME-3M melanoma.
The subject of test [5] is MDA-N.
Test [6] concerns NCI-H23 lung.
In test [7] the test system is NCI/ADR-RES ovarian.
Test [8] has as its system OVCAR-3 ovarian.
Test [9] has as its system PC-3 prostate.
Test [10] deals with RPMI-8226 leukemia.
Test [11] relates to SF-268 CNS.
Test [12] concerns SF-539 CNS.
Test [13] has as its system SK-MEL-2 melanoma.
In test [14] the test system is U251 CNS.
The subject of test [15] is UO-31 renal.
For test [16], the system named is HOP-92 NSCLC.
The subject of test [17] is LOX IMVI melanoma.
Test [18] relates to RXF 393 renal.
The test system of test [19] is TK-10 renal.

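Tested at 5 concentrations; 48 h exposure; 96-well plates; endpoints linearly interpolated, else capped at highest concentration. TGI: total growth inhibition.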

Regarding `COc1ccc(/C=N/n2c(Cc3ccccc3)n[nH]c2=O)cc1`, the TGI in [1] is more than 100 µM; in test [2] it was more than 100 µM; in [3], 54.4 µM; in test [4], more than 100 µM; in [5], more than 100 µM; in test [6], more than 100 µM. Further, the TGI in test [7], in [8], in test [9], in test [10], in test [11] and in test [12] was more than 100 µM throughout. Besides, the TGI in [13], in test [14] and in test [15] was more than 100 µM each time.

For the molecule `Nc1ncc(Sc2ccccc2C(=O)O)s1`, the TGI in test [1], in test [2], in test [16], in [3], in test [17] and in test [5] was more than 100 µM each time. Besides, the TGI in [6], in test [7], in test [8], in [9], in [10] and in [18] was more than 100 µM in each case. Further, the TGI in test [11], in test [12], in [13], in test [19], in [14] and in test [15] was more than 100 µM in each case.

For `COC(=O)[C@]1(C)[C@H]2C[C@H]3O[C@H]4[C@H](O)[C@@H](O)OC(CC(O)C(C5=CC(=O)OC5)C(C5=CC(=O)OC5)C(O)CC56CCCCC7[C@@H](C)[C@H](C[C@H]8[C@](C)(C(=O)OC)[C@H](O)CC[C@]78C)O[C@H]([C@@H](O)[C@H](O)O5)[C@H]6O)(CCCCC([C@@H]3C)[C@]2(C)CC[C@@H]1O)[C@H]4O` (stereo not given in full), the TGI turned out to be 1.33 µM in [1]; 0.64 µM in [2]; 3.92 µM in test [16]; 1.17 µM in test [17]; 0.407 µM in [4]; 0.786 µM in test [5]. The TGI is 0.318 µM in test [6]; 0.286 µM in test [7]; 1.05 µM in test [8]; 0.449 µM in test [9]; 0.539 µM in [10]; 0.264 µM in test [18]. Moreover, the TGI in test [11] stood at 0.212 µM; in test [12], 0.321 µM; in test [13] it was 0.643 µM; in [19], 0.234 µM; in test [14], 1.09 µM; in test [15], 0.442 µM.

In the case of `CCCCOCCOCCOC1=C(Cl)C(=O)c2c(O)ccc(O)c2C1=O`, the TGI in [1] is 0.756 µM; in [2], 2.53 µM; in test [16] it was 0.437 µM; in test [3] it was 5.86 µM; in [17] it was 1.75 µM; in test [5] it was 2.03 µM. For the same molecule, the TGI came out at 2.92 µM in test [6]; 7.49 µM in test [7]; 2.08 µM in [8]; 3.19 µM in [9]; 1.32 µM in test [10]; 2.05 µM in test [18]. Moreover, the TGI in test [11] is 2.11 µM; in test [12], 2.84 µM; in [19] it was 2.63 µM; in test [14], 6.72 µM; in test [15] it was 2.68 µM.

As for `Cc1cc(OC(=O)Nc2ccc(Cl)cc2)ccc1C(=S)Nc1ccccc1`, the TGI in test [1], in test [2], in test [16], in test [3], in test [17] and in test [4] was more than 100 µM throughout. The TGI in [5], in test [7], in [8], in test [9], in test [10] and in test [11] was more than 100 µM in each case. The TGI in [12], in test [13], in test [14] and in test [15] was more than 100 µM throughout.

Take `CC1=CC(=O)c2c(O)c3c(c(O)c2C1=O)C1C(O)C(C3=O)C23C(=O)c4c(O)c(C)cc(O)c4C(O)=C2C(=O)CC(O)C13` (stereo not given): the TGI came out at 4.76 µM in [1]; 6.21 µM in test [2]; 3.44 µM in [3]; 4.7 µM in test [17]; 2.91 µM in [4]; 2.89 µM in test [5]. Moreover, the TGI in test [6] was 14.1 µM; in test [8], 7.75 µM; in [9], 10.2 µM; in test [11], 7.54 µM; in [12], 5.07 µM; in test [13], 3.79 µM. Moreover, the TGI in test [19] was 11.6 µM; in [14], 15.9 µM.

For the molecule `Brc1ccc(-c2nc(-c3ccc(Br)cc3)n(-c3ccccc3)n2)cc1`, the TGI was 57.5 µM in test [1]; more than 100 µM in [2]; more than 100 µM in [16]; more than 100 µM in test [3]; more than 100 µM in test [17]; more than 100 µM in [5]. The TGI in [6], in test [7], in test [8], in [9], in test [11] and in test [12] was more than 100 µM in each case. The TGI in test [13], in test [19], in test [14] and in test [15] was more than 100 µM in each case.

Turning to `FC(F)(F)c1cnc(N/N=C(/c2ccccc2)c2ccccn2)c(Cl)c1`, the TGI is 20.6 µM in test [1]; 20.3 µM in test [2]; 23.2 µM in test [16]; 26.9 µM in [3]; more than 100 µM in test [5]; 25.1 µM in test [6]. The TGI was 6.92 µM in [7]; 11.7 µM in test [8]; 24.6 µM in test [9]; more than 100 µM in [10]; 32.5 µM in [18]; 21.8 µM in [11]. Also, the TGI in test [12] turned out to be 14.4 µM; in test [13], 24.4 µM; in [14], 30.4 µM; in [15], 21.7 µM.
